pKi: −log10 of the molar value.

One may read the pKi as −log10 of the Ki, conventionally taken in molar units.

The assay deals with T1, Gonadotropin-releasing hormone receptor (Homo sapiens, UniProt P30968).
T1 sequence (P30968 whole entry): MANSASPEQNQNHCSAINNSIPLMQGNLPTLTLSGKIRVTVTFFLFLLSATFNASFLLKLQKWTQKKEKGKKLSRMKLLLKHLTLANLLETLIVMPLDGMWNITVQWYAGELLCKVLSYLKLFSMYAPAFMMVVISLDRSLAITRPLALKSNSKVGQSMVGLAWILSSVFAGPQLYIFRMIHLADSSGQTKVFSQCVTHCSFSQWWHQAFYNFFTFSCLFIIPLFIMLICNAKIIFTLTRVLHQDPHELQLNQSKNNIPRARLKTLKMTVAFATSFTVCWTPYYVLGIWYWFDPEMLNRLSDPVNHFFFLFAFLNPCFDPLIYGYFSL
Kind of assay: Binding affinity against human gonadotropin-releasing hormone receptor.
In the case of `COc1cccc(-c2c(C)n(Cc3ccccc3F)c3nc(C(C)(C)C)c(CNCc4ccccc4)n3c2=O)c1`, the pKi is 6.62.
As for `COc1cccc(-c2c(C)n(Cc3ccccc3F)c3nc4c(n3c2=O)CN(CCc2ccccn2)CC4(C)C)c1`, the figure is 4.92; as for `COCCN(C)Cc1c(C(C)(C)C)nc2n(Cc3ccccc3F)c(C)c(-c3cccc(OC)c3)c(=O)n12`, 6.37; as for `COC(=O)C(C)(C)c1nc2n(Cc3ccccc3F)c(C)c(-c3cccc(OC)c3)c(=O)n2c1CN(C)CCc1ccccn1`, 8.92.
`COc1cccc(-c2c(C)n(Cc3ccccc3F)c3nc(C(C)(C)C)c(CNCC4CCCCC4)n3c2=O)c1` gave a pKi of 6.37.
For the compound `COc1cccc(-c2c(C)n(Cc3ccccc3F)c3nc(C(C)(C)C)c(CNCC4CCCC4)n3c2=O)c1`, the pKi was 5.19.
`COC(=O)C(C)(C)c1nc2n(Cc3ccccc3F)c(C)c(-c3cccc(OC)c3)c(=O)n2c1CN(C)Cc1ccccn1` showed a pKi of 8.38.
The compound `COC(=O)C(C)(C)c1nc2n(Cc3ccccc3F)c(C)c(-c3cccc(OC)c3)c(=O)n2c1CN1CCc2ccccc2C1` gave a pKi of 5.04.
In turn, `COc1cccc(-c2c(C)n(Cc3ccccc3F)c3nc(C(C)(C)CO)c(CN(C)Cc4ccccn4)n3c2=O)c1` showed a pKi of 8.10.
As for `COc1cccc(-c2c(C)n(Cc3ccccc3F)c3nc(C(C)(C)C)c(CN(C)CCc4ccccc4)n3c2=O)c1`, the pKi is 6.72.
`COC(=O)C(C)(C)c1nc2n(Cc3ccccc3F)c(C)c(-c3cccc(OC)c3)c(=O)n2c1CN1CCC(c2ccccc2)CC1`: the pKi was 5.29.
Turning to `COCCN(C)Cc1c(C(C)(C)C(=O)OC)nc2n(Cc3ccccc3F)c(C)c(-c3cccc(OC)c3)c(=O)n12`, the pKi was 6.52.
The result for `COc1cccc(-c2c(C)n(Cc3ccccc3F)c3nc(C(C)(C)C)c(CNCCc4ccccn4)n3c2=O)c1` reads 6.80; that for `COC(=O)C(C)(C)c1nc2n(Cc3ccccc3F)c(C)c(-c3cccc(OC)c3)c(=O)n2c1CN(C)CCc1ccccc1`, 6.89; that for `COc1cccc(-c2c(C)n(Cc3ccccc3F)c3nc(C(C)(C)CNCCc4ccccn4)cn3c2=O)c1`, 6.46.
The result for `COc1cccc(-c2c(C)n(Cc3ccccc3F)c3nc(C(C)(C)C)c(CN(C)Cc4ccccc4)n3c2=O)c1` reads 7.14.
`COC(=O)C(C)(C)c1nc2n(Cc3ccccc3F)c(C)c(-c3cccc(OC)c3)c(=O)n2c1CN(C)Cc1cccnc1` showed a pKi of 6.40.
The compound `CCN(CC)CCN(C)Cc1c(C(C)(C)C)nc2n(Cc3ccccc3F)c(C)c(-c3cccc(OC)c3)c(=O)n12` had a pKi of 6.59.
Compound `COc1cccc(-c2c(C)n(Cc3ccccc3F)c3nc(C(C)(C)C)c(CN(C)C)n3c2=O)c1` had a pKi of 5.77.
`COc1cccc(-c2c(C)n(Cc3ccccc3F)c3nc(C(C)(C)C)c(CN(C)Cc4ccccn4)n3c2=O)c1`: the pKi is 7.96.
As for `CCCCN(C)Cc1c(C(C)(C)C(=O)OC)nc2n(Cc3ccccc3F)c(C)c(-c3cccc(OC)c3)c(=O)n12`, the figure is 6.49; as for `COc1cccc(-c2c(C)n(Cc3ccccc3F)c3nc(C(C)(C)C)c(CNCc4ccccn4)n3c2=O)c1`, 7.52; as for `COc1cccc(-c2c(C)n(Cc3ccccc3F)c3nc(C(C)(C)C)c(CN(C)CCc4ccccn4)n3c2=O)c1`, 8.28.
`COC(=O)C(C)(C)c1nc2n(Cc3ccccc3F)c(C)c(-c3cccc(OC)c3)c(=O)n2c1CN(C)Cc1ccccc1` showed a negative logarithm of the Ki (pKi) of 7.23.
Consider `COC(=O)C(C)(C)c1nc2n(Cc3ccccc3F)c(C)c(-c3cccc(OC)c3)c(=O)n2c1CN1CCN(C)CC1`, for which the pKi was 5.11.
As for `COC(=O)C(C)(C)c1nc2n(Cc3ccccc3F)c(C)c(-c3cccc(OC)c3)c(=O)n2c1CN(C)Cc1ccccc1O`, the figure is 6.31; as for `CCN(CCc1ccccn1)Cc1c(C(C)(C)C)nc2n(Cc3ccccc3F)c(C)c(-c3cccc(OC)c3)c(=O)n12`, 8.10.

Source of the values: ChEMBL document CHEMBL1136785, “Design and structure-activity relationships of 2-alkyl-3-aminomethyl-6-(3-methoxyphenyl)-7-methyl-8-(2-fluorobenzyl)imidazolo[1,2-a]pyrimid-5-ones as potent GnRH receptor antagonists” (J Med Chem, 2003).
